Measurements reported in patent US6747029B2, “Dopamine D4 receptor antagonists as treatment for attention deficit-hyperactivity disorder” (priority 2001, dated 2004).

Key:
6-OHDA-lesioned rats = test: Locomotor activity of juvenile rats with neonatal 6-OHDA lesions (ADHD model); assay type: in vivo, Sprague-Dawley rat; conditions: for effect on lesion-induced hyperactivity (dose dependence): i.p., low and high dosage; for effect on lesion-induced hyperactivity (dose dependence) / motor activity in lesioned rats: daytime; for hyperactivity in lesioned rats with psychostimulants: daytime 10:00-16:00 h, dose not given
From the text: For example, behavioral studies of juvenile rats with neonatal 6-hydroxydopamine (6-OHDA) lesions, as is described below, can be used to screen drugs in order to identify candidate drugs for use in the method of the invention. […] As a result, juvenile rats with neonatal 6-OHDA lesions are accepted as a laboratory model for ADHD.
On postnatal day (PD) 5, male Sprague-Dawley rat pups randomly received intracisternal injections of vehicle (“sham-lesioned”) (0.9% NaCl containing 0.1% ascorbic acid) or 6-OHDA hydrobromide (“lesioned”) (100 μg free base) into the brain under hypothermal anesthesia at 45 min after pretreatment with desipramine hydrochloride (20 mg/kg free base) injected subcutaneously (s.c.).
Behavioral effects of neonatal lesions were examined by monitoring locomotor activity at PD 21-30 in a novel environment to provoke exploratory activity. Rats were maintained under a 12-h artificial daylight/dark schedule (on, 07:00-19:00 h), with free access to tap-water and standard rat chow. Motor activity was automatically monitored for 90 min between PD 21 and 30, with a computer-controlled photobeam activity monitoring system (San Diego Instruments, San Diego, Calif.). […] […] Sessions were separated by 48 hours. […] Breaking of consecutive photobeams was scored as locomotion.

sham-lesioned rats = test: Locomotor activity of sham-lesioned control rats; assay type: in vivo, Sprague-Dawley rat; conditions: daytime 10:00-16:00 h
Description: (§1) On postnatal day (PD) 5, male Sprague-Dawley rat pups randomly received intracisternal injections of vehicle (“sham-lesioned”) (0.9% NaCl containing 0.1% ascorbic acid) or 6-OHDA hydrobromide (“lesioned”) (100 μg free base) into the brain under hypothermal anesthesia at 45 min after pretreatment with desipramine hydrochloride (20 mg/kg free base) injected subcutaneously (s.c.). Lesions of DA in forebrain tissue sections were verified by quantifying DA transporter binding with [^3H]GBR-12935 (1-[2-(diphenylmethoxy)ethyl]-4-(3-phenylpropyl)piperazine) by computed autoradiography at the completion of experiments as an indication of loss of DA nerve terminals in forebrain.
Behavioral effects of neonatal lesions were examined by monitoring locomotor activity at PD 21-30 in a novel environment to provoke exploratory activity. Rats were maintained under a 12-h artificial daylight/dark schedule (on, 07:00-19:00 h), with free access to tap-water and standard rat chow. Motor activity was automatically monitored for 90 min between PD 21 and 30, with a computer-controlled photobeam activity monitoring system (San Diego Instruments, San Diego, Calif.). […] Breaking of consecutive photobeams was scored as locomotion.

D4 receptors [1] = test: Autoradiography of D4 receptor binding in forebrain after neonatal lesion; assay type: in vivo, rat
Description: as §1
(§2) Rats were sacrificed 2 days after the last behavioral testing for autoradiographic analysis of DA receptor density. Frozen coronal brain sections (10 μm) were prepared in a cryostat at −17° C., thaw-mounted on gelatin-coated microscopic slides and stored at −80° C. until quantitative autoradiographic assays. D2-like receptor binding was assayed with 1 nM [^3H]nemonapride in the presence of 0.5 μM 1,3-ditolylguanidine and 0.1 μM pindolol to block 5-HT1A sites in the brain tissue. Nonspecific binding was determined with 10 μM […]. […] Nonspecific binding was determined with 1 μM cis-flupenthixol.

D2-like receptors = test: Autoradiography of D2-like receptor binding in forebrain after neonatal lesion; assay type: in vivo, rat
Description: as §1, §2

D4 receptors [2] = biological target: T1, D4 receptors (Homo sapiens, UniProt P21917); conditions: cited from earlier work
T1 sequence (P21917 1-419): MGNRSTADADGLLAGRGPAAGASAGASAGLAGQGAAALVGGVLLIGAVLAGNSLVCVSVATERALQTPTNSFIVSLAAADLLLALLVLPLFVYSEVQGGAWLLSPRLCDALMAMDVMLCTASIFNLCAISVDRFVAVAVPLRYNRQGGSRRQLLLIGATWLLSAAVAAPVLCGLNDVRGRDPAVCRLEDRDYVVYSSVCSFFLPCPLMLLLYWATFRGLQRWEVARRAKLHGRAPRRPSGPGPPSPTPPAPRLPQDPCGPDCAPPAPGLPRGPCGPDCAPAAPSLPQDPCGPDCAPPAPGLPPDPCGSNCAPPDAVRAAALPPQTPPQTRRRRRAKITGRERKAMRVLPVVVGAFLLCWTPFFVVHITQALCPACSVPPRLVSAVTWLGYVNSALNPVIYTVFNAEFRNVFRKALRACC

[3] = test system: non-dopaminergic receptors; conditions: except 5-HT1A and 5-HT2A; cited from earlier work

Structure (SMILES): Fc1ccc2[nH]c(CN3CCN(c4ccccn4)CC3)cc2c1 [CP-226,269]
- effect on lesion-induced hyperactivity (dose dependence) (6-OHDA-lesioned rats): dose-dependent exacerbation

Structure (SMILES): CC(N)Cc1ccccc1 (single isomer, unassigned; (+)) [(+)-amphetamine]
- motor activity in sham-lesioned controls (sham-lesioned rats): greatly increased motor activity
- hyperactivity in lesioned rats with psychostimulants (6-OHDA-lesioned rats): reduced

Structure (SMILES): NCCc1cc(O)c(O)cc1O [6-OHDA, 6-hydroxydopamine]
- increase of D4 receptor binding versus sham (D4 receptors [1]; lateral CPu): 40.3%
- increase of D4 receptor binding versus sham (D4 receptors [1]; medial CPu): 35.2%
- increase of D2-like receptors versus sham (D2-like receptors; lateral CPu): 16.6%
- increase of D2-like receptors versus sham (D2-like receptors; medial CPu): 18.3%

Structure (SMILES): Clc1ccc(N2CCN(Cc3c[nH]c4ncccc34)CC2)cc1 [L-745,870, 3-{[4-(4-chlorophenyl)piperazin-1-yl]methyl}-1H-pyrrolo[2,3-b]pyridine]
- selectivity and kind of action at D4 receptors (D4 receptors [2]): highly selective fill antagonist
- motor activity in lesioned rats (6-OHDA-lesioned rats; 15 mg/kg i.p.): reversed to a level similar to that found in control rats

Structure (SMILES): CC[C@@H](CO)NC(=O)[C@@H]1C=C2c3cccc4c3c(cn4C)C[C@H]2N(C)C1 [methysergide]
- effect of methysergide alone on lesion-induced hyperactivity (6-OHDA-lesioned rats; 2 mg/kg i.p., 30 min prior to testing): failed to affect
- effect of methysergide pretreatment on motor responses to subsequent CP-293,019 (6-OHDA-lesioned rats; methysergide 2 mg/kg i.p. 30 min before CP-293,019 30 mg/kg): did not affect

Structure (SMILES): Fc1ccc(OCC2CCC3CN(c4ncc(F)cn4)CCN3C2)cc1 (stereo not drawn) [CP-293,019, 7R,S-(4-fluoro-phenoxymethyl)-2-(5-fluoro-pyrimidin-2-yl)-octahydropyrido[1,2-α]pyrazine]
- potency at D4 receptors relative to D2 or other DA receptors (D4 receptors [2]): more than 1000 times
- selectivity and kind of action at D4 receptors (D4 receptors [2]): highly D4 receptor-selective, full antagonist
- affinity for non-dopaminergic receptors [3]: negligible affinity
- motor activity in lesioned rats (6-OHDA-lesioned rats; 30 mg/kg i.p., 90 min session): indistinguishable from sham-lesioned controls
- nocturnal hyperactivity in lesioned rats (6-OHDA-lesioned rats; 30 mg/kg, nocturnal 22:00-04:00 h): completely reversed
- inhibition at 10 mg/kg (6-OHDA-lesioned rats; Rattus norvegicus, ip, read-out: inhibition of motor activity in lesioned rats): ~40%
- effect on lesion-induced hyperactivity (dose dependence) (6-OHDA-lesioned rats): dose-dependent mitigation

Structure (SMILES): COC(=O)C(c1ccccc1)C1CCCCN1 (racemic) [(±)-methylphenidate]
- motor activity in sham-lesioned controls (sham-lesioned rats): greatly increased motor activity
- hyperactivity in lesioned rats with psychostimulants (6-OHDA-lesioned rats): reduced
